The values that follow come from US20110009343A1, “MODULATORS OF AMYLOID AGGREGATION” (Praecis Pharmaceuticals, Inc., priority 1995, published 2011).

Numbered stars: 1 amine (or outer) side, 2 acyl side, 3 side chain; on linkers, the order of the positions; unused ones are H or OH. Square brackets hold non-standard residues; d marks the D form. Peptide text beside a SMILES is read from it. * marks the point of attachment. Cholyl = C[C@H](CCC(=O)*)[C@H]1CC[C@H]2[C@@H]3[C@H](O)C[C@@H]4C[C@H](O)CC[C@]4(C)[C@H]3C[C@H](O)[C@]12C; X2 = O=C(C1(O)C[C@H](O)[C@@H](N[*:1])[C@H]([C@H](O)[C@H](O)CO)O1)[*:2]; X3 = N=C1N[C@H]2[C@H](CS[C@H]2CCCCC(=O)*)N1

In this experiment the target is T1, Aβ1-40 (Homo sapiens, UniProt P05067).
T1 construct: (β-AP1-40) was obtained commercially from Bachem (Torrance, Calif.); purchased Bachem (Torrance, Calif.)
Kind of experiment: Nucleation assay (turbidity, A405 nm).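 On all read-outs here: synthetic Aβ monomer polymerization followed by turbidity in 96-well plates with continuous shaking, read every 15 minutes over 5 hours, compared against wells lacking test compound.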 To be noted: for inhibition at 100 mol %: 100 mole % inhibitor, read-out: % Inucl'n (percent reduction in maximum observed turbidity). The experiment is classed as biochemical.

Setting [1] is: Table II, 100 mole % vs 50 μM Aβ1-40.

T1 sequence (P05067 672-711): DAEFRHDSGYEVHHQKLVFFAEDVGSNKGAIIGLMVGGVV
Description: The nucleation assay is employed to determine the ability of test compounds to alter (e.g. inhibit) the early events in formation of β-AP fibers from monomeric β-AP. […] The time delay before polymerization of β-AP monomer can be quantified as well as the extent of formation of insoluble fiber by light scattering (turbidity). Polymerization reaches equilibrium when the maximum turbidity reaches a plateau. The turbidity of a solution of natural β-AP in the absence or presence of various concentrations of a β-amyloid modulator compound is determined by measuring the apparent absorbance of the solution at 405 nm (A405 nm) over time. The threshold of sensitivity for the measurement of turbidity is in the range of 15-20 μM β-AP. […] This assay can be performed using stirring or shaking to accelerate polymerization, thereby increasing the speed of the assay. Moreover the assay can be adapted to a 96-well plate format to screen multiple compounds.
HFIP-solubilized peptide is sonicated in a waterbath sonicator for 5 mM at highest setting, then evaporated to dryness under a stream of argon. The peptide film is resuspended in anhydrous dimethylsulfoxide (DMSO) at a concentration of 6.9 mg/ml (25× concentration), sonicated for 5 mM as before, then filtered through a 0.2 micron nylon syringe filter (VWR cat. No. 28196-050). Test compounds are dissolved in DMSO at a 100× concentration. […] Ten microliters of the mixture is then added to the bottom of a well of a Corning Costar ultra low binding 96-well plate (Corning Costar, Cambridge Mass.; cat. No. 2500). Ninety microliters of water is added to the well, the plate is shaken on a rotary shaken at a constant speed at room temperature for 30 seconds, an additional 100 μl of 2×PTL buffer (20 mM NaH2PO4, 300 mM NaCl, pH 7.4) is added to the well, the plate is reshaken for 30 seconds and a baseline (t=0) turbidity reading is taken by measuring the apparent absorbance at 405 nm using a Bio-Rad Model 450 Microplate Reader. The plate is then returned to the shaker and shaken continuously for 5 hours. Turbidity readings are taken at 15 minute intervals.
β-amyloid aggregation in the absence of any modulators results in enhanced turbidity of the natural β-AP solution (i.e., an increase in the apparent absorbance at 405 nm over time).
Accordingly a fold increase in lag time of 1.0 indicates no change in lag time, whereas numbers >1.0 indicate an increase in lag time. The “% inhibition of plateau”, which is a measure of the ability of the compound to decrease the total amount of aggregation, refers to the reduction of the final turbidity in the presence of the test compound expressed as a percent of the control without the test compound.

For `CC(=O)N[C@H]1[C@H]([C@H](O)[C@H](O)CO)OC(O)(C(=O)N[C@@H](Cc2c[nH]cn2)C(=O)N[C@@H](CC(=O)O)C(=O)N[C@@H](CO)C(=O)NCC(=O)N[C@@H](Cc2ccc(O)cc2)C(=O)N[C@@H](CCC(=O)O)C(=O)N[C@H](C(=O)N[C@@H](Cc2c[nH]cn2)C(=O)N[C@@H](Cc2c[nH]cn2)C(=O)N[C@@H](CCC(N)=O)C(=O)N[C@@H](CCCCN)C(=O)N[C@@H](CC(C)C)C(=O)N[C@H](C(=O)N[C@@H](Cc2ccccc2)C(=O)N[C@@H](Cc2ccccc2)C(=O)O)C(C)C)C(C)C)C[C@@H]1O` (stereo partly drawn) [PPI-266] (Ac-[X2]HDSGYEVHHQKLVFF-OH), the “Fold Increase in Lag Time” value under setting [1] was determined as 1.3 fold. Same read-out and setting: for `CC(C)C[C@H](NC(=O)[C@H](CCCCN)NC(=O)[C@H](CCC(N)=O)NC(=O)[C@H](Cc1c[nH]cn1)NC(=O)[C@H](Cc1c[nH]cn1)NC(=O)[C@@H](NC(=O)[C@H](CCC(=O)O)NC(=O)[C@H](Cc1ccc(O)cc1)NC(=O)CNC(=O)[C@H](CO)NC(=O)[C@H](CC(=O)O)NC(=O)[C@H](Cc1c[nH]cn1)NC(=O)CCCC[C@@H]1SC[C@@H]2NC(=N)N[C@@H]21)C(C)C)C(=O)N[C@H](C(=O)N[C@@H](Cc1ccccc1)C(=O)N[C@@H](Cc1ccccc1)C(=O)O)C(C)C` [PPI-267, iminobiotinyl-Aβ6-20] (X3-HDSGYEVHHQKLVFF-OH) the value was 1.6 fold; for `CC(C)C[C@H](NC(=O)[C@H](CCCCN)NC(=O)CC[C@@H](C)[C@H]1CC[C@H]2[C@@H]3[C@H](O)C[C@@H]4C[C@H](O)CC[C@]4(C)[C@H]3C[C@H](O)[C@]12C)C(=O)N[C@H](C(=O)N[C@@H](Cc1ccccc1)C(=O)N[C@@H](Cc1ccccc1)C(=O)N[C@@H](C)C(=O)N[C@@H](CCC(=O)O)C(=O)N[C@@H](CC(=O)O)C(=O)N[C@H](C(=O)NCC(=O)N[C@@H](CO)C(=O)N[C@@H](CC(N)=O)C(=O)N[C@@H](CCCCN)C(=O)NCC(=O)N[C@@H](C)C(=O)O)C(C)C)C(C)C` [PPI-274] (Cholyl-KLVFFAEDVGSNKGA-OH), >4.5 fold; for `CC(=O)N[C@H]1[C@H]([C@H](O)[C@H](O)CO)OC(O)(C(=O)N[C@@H](CCCCN)C(=O)N[C@@H](CC(C)C)C(=O)N[C@H](C(=O)N[C@@H](Cc2ccccc2)C(=O)N[C@@H](Cc2ccccc2)C(=O)N[C@@H](C)C(=O)N[C@@H](CCC(=O)O)C(=O)N[C@@H](CC(=O)O)C(=O)N[C@H](C(=O)NCC(=O)N[C@@H](CO)C(=O)N[C@@H](CC(N)=O)C(=O)N[C@@H](CCCCN)C(=O)NCC(=O)N[C@@H](C)C(=O)O)C(C)C)C(C)C)C[C@@H]1O` (stereo partly drawn) [PPI-276] (Ac-[X2]KLVFFAEDVGSNKGA-OH), ~1 fold. On to `CC(C)C[C@H](NC(=O)[C@H](CCCCN)NC(=O)CCCC[C@@H]1SC[C@@H]2NC(=N)N[C@@H]21)C(=O)N[C@H](C(=O)N[C@@H](Cc1ccccc1)C(=O)N[C@@H](Cc1ccccc1)C(=O)N[C@@H](C)C(=O)N[C@@H](CCC(=O)O)C(=O)N[C@@H](CC(=O)O)C(=O)N[C@H](C(=O)NCC(=O)N[C@@H](CO)C(=O)N[C@@H](CC(N)=O)C(=O)N[C@@H](CCCCN)C(=O)NCC(=O)N[C@@H](C)C(=O)O)C(C)C)C(C)C` [PPI-277] (X3-KLVFFAEDVGSNKGA-OH), for which the “Fold Increase in Lag Time” value under setting [1] is 1.2 fold. On the same count and under the same terms, with `CC[C@H](C)[C@H](NC(=O)[C@H](C)NC(=O)CNC(=O)[C@H](CCCCN)NC(=O)[C@H](CC(N)=O)NC(=O)[C@H](CO)NC(=O)CNC(=O)[C@@H](NC(=O)[C@H](CC(=O)O)NC(=O)[C@H](CCC(=O)O)NC(=O)[C@H](C)NC(=O)CC[C@@H](C)[C@H]1CC[C@H]2[C@@H]3[C@H](O)C[C@@H]4C[C@H](O)CC[C@]4(C)[C@H]3C[C@H](O)[C@]12C)C(C)C)C(=O)N[C@H](C(=O)NCC(=O)N[C@@H](CC(C)C)C(=O)N[C@@H](CCSC)C(=O)O)[C@@H](C)CC` [PPI-279] (Cholyl-AEDVGSNKGAIIGLM-OH) the figure was 1.6 fold; with `CC[C@H](C)[C@H](NC(=O)[C@H](C)NC(=O)CNC(=O)[C@H](CCCCN)NC(=O)[C@H](CC(N)=O)NC(=O)[C@H](CO)NC(=O)CNC(=O)[C@@H](NC(=O)[C@H](CC(=O)O)NC(=O)[C@H](CCC(=O)O)NC(=O)[C@H](C)NC(=O)C1(O)C[C@H](O)[C@@H](NC(C)=O)[C@H]([C@H](O)[C@H](O)CO)O1)C(C)C)C(=O)N[C@H](C(=O)NCC(=O)N[C@@H](CC(C)C)C(=O)N[C@@H](CCSC)C(=O)O)[C@@H](C)CC` (stereo partly drawn) [PPI-281] (Ac-[X2]AEDVGSNKGAIIGLM-OH), ~1 fold.

For the compound `CC[C@H](C)[C@H](NC(=O)[C@H](C)NC(=O)CNC(=O)[C@H](CCCCN)NC(=O)[C@H](CC(N)=O)NC(=O)[C@H](CO)NC(=O)CNC(=O)[C@@H](NC(=O)[C@H](CC(=O)O)NC(=O)[C@H](CCC(=O)O)NC(=O)[C@H](C)NC(=O)CCCC[C@@H]1SC[C@@H]2NC(=N)N[C@@H]21)C(C)C)C(=O)N[C@H](C(=O)NCC(=O)N[C@@H](CC(C)C)C(=O)N[C@@H](CCSC)C(=O)O)[C@@H](C)CC` [PPI-282] (X3-AEDVGSNKGAIIGLM-OH), under setting [1], the “Fold Increase in Lag Time” value is on record as ~1 fold. On the same count and under the same terms, for `CC[C@H](C)[C@H](NC(=O)[C@H](C)NC(=O)CNC(=O)[C@H](CCCCN)NC(=O)[C@H](CC(N)=O)NC(=O)[C@H](CO)NC(=O)CC[C@@H](C)[C@H]1CC[C@H]2[C@@H]3[C@H](O)C[C@@H]4C[C@H](O)CC[C@]4(C)[C@H]3C[C@H](O)[C@]12C)C(=O)N[C@H](C(=O)NCC(=O)N[C@@H](CC(C)C)C(=O)N[C@@H](CCSC)C(=O)N[C@H](C(=O)NCC(=O)NCC(=O)N[C@H](C(=O)N[C@H](C(=O)O)C(C)C)C(C)C)C(C)C)[C@@H](C)CC` [PPI-284] (Cholyl-SNKGAIIGLMVGGVV-OH) the value was >4.5 fold. For the compound `CC[C@H](C)[C@H](NC(=O)[C@H](C)NC(=O)CNC(=O)[C@H](CCCCN)NC(=O)[C@H](CC(N)=O)NC(=O)[C@H](CO)NC(=O)C1(O)C[C@H](O)[C@@H](NC(C)=O)[C@H]([C@H](O)[C@H](O)CO)O1)C(=O)N[C@H](C(=O)NCC(=O)N[C@@H](CC(C)C)C(=O)N[C@@H](CCSC)C(=O)N[C@H](C(=O)NCC(=O)NCC(=O)N[C@H](C(=O)N[C@H](C(=O)O)C(C)C)C(C)C)C(C)C)[C@@H](C)CC` (stereo partly drawn) [PPI-286] (Ac-[X2]SNKGAIIGLMVGGVV-OH), the “Fold Increase in Lag Time” value under setting [1] was 1.3 fold. On the same count and under the same terms, with `CC[C@H](C)[C@H](NC(=O)[C@H](C)NC(=O)CNC(=O)[C@H](CCCCN)NC(=O)[C@H](CC(N)=O)NC(=O)[C@H](CO)NC(=O)CCCC[C@@H]1SC[C@@H]2NC(=N)N[C@@H]21)C(=O)N[C@H](C(=O)NCC(=O)N[C@@H](CC(C)C)C(=O)N[C@@H](CCSC)C(=O)N[C@H](C(=O)NCC(=O)NCC(=O)N[C@H](C(=O)N[C@H](C(=O)O)C(C)C)C(C)C)C(C)C)[C@@H](C)CC` [PPI-287] (X3-SNKGAIIGLMVGGVV-OH) the figure was 2.3 fold. Turning to `C[C@H](CCC(=O)O)[C@H]1CC[C@H]2[C@@H]3[C@H](O)C[C@@H]4C[C@H](O)CC[C@]4(C)[C@H]3C[C@H](O)[C@]12C` [PPI-293, Cholic acid, reference compound], the “inhibitory activity on Aβ aggregation” value was “had no effect on Aβ aggregation”. Moreover, the inhibition at 100 mol % (Table V) is 0%. As to `CC(C)C[C@H](NC(=O)[C@H](CCCCN)NC(=O)[C@H](CCC(N)=O)NC(=O)[C@H](Cc1c[nH]cn1)NC(=O)[C@H](Cc1c[nH]cn1)NC(=O)[C@@H](NC(=O)[C@H](CCC(=O)O)NC(=O)[C@H](Cc1ccc(O)cc1)NC(=O)CNC(=O)[C@H](CO)NC(=O)[C@H](CC(=O)O)NC(=O)[C@H](Cc1c[nH]cn1)NC(=O)CC[C@@H](C)[C@H]1CC[C@H]2[C@@H]3[C@H](O)C[C@@H]4C[C@H](O)CC[C@]4(C)[C@H]3C[C@H](O)[C@]12C)C(C)C)C(=O)N[C@H](C(=O)N[C@@H](Cc1ccccc1)C(=O)N[C@@H](Cc1ccccc1)C(N)=O)C(C)C` [PPI-296] (Cholyl-HDSGYEVHHQKLVFF-NH2), the “Fold Increase in Lag Time” value (Table III, 33 mole %) is on record as 1.8 fold. For the compound `CC(C)C[C@H](NC(=O)[C@H](CCCCN)NC(=O)[C@H](CCC(N)=O)NC(=O)[C@H](Cc1c[nH]cn1)NC(=O)[C@H](Cc1c[nH]cn1)NC(=O)[C@@H](NC(=O)[C@H](CCC(=O)O)NC(=O)[C@H](Cc1ccc(O)cc1)NC(=O)CNC(=O)[C@H](CO)NC(=O)[C@H](CC(=O)O)NC(=O)[C@H](Cc1c[nH]cn1)NC(=O)CC[C@@H](C)[C@H]1CC[C@H]2[C@@H]3[C@H](O)C[C@@H]4C[C@H](O)CC[C@]4(C)[C@H]3C[C@H](O)[C@]12C)C(C)C)C(N)=O` [PPI-325] (Cholyl-HDSGYEVHHQKL-NH2), where the note is “Table III, 33 mole %”, the “Fold Increase in Lag Time” value turned out to be 1.8 fold.

For `CC(C)[C@H](NC(=O)[C@H](CCC(=O)O)NC(=O)[C@H](Cc1ccc(O)cc1)NC(=O)CNC(=O)[C@H](CO)NC(=O)[C@H](CC(=O)O)NC(=O)[C@H](Cc1c[nH]cn1)NC(=O)CC[C@@H](C)[C@H]1CC[C@H]2[C@@H]3[C@H](O)C[C@@H]4C[C@H](O)CC[C@]4(C)[C@H]3C[C@H](O)[C@]12C)C(=O)N[C@@H](Cc1c[nH]cn1)C(=O)N[C@@H](Cc1c[nH]cn1)C(N)=O` [PPI-331] (Cholyl-HDSGYEVHH-NH2), the “Fold Increase in Lag Time” value (Table III, 33 mole %) is reported as 1.0 fold. With `C[C@H](CCC(=O)N[C@@H](Cc1c[nH]cn1)C(=O)N[C@@H](CC(=O)O)C(=O)N[C@@H](CO)C(=O)NCC(=O)N[C@@H](Cc1ccc(O)cc1)C(N)=O)[C@H]1CC[C@H]2[C@@H]3[C@H](O)C[C@@H]4C[C@H](O)CC[C@]4(C)[C@H]3C[C@H](O)[C@]12C` [PPI-339] (Cholyl-HDSGY-NH2), the “Fold Increase in Lag Time” value (Table III, 33 mole %) is 1.1 fold. Also, the “ΔLag (ratio of lag time with test compound to lag time of control)” value (Table V, 100 mole % inhibitor relative to Aβ1-40) is 1.1. Moreover, the inhibition at 100 mol % (Table V) was -18%. As to `CC(C)C[C@H](NC(=O)[C@H](CCCCN)NC(=O)[C@H](CCC(N)=O)NC(=O)[C@H](Cc1c[nH]cn1)NC(=O)[C@H](Cc1c[nH]cn1)NC(=O)[C@@H](NC(=O)[C@H](CCC(=O)O)NC(=O)[C@H](Cc1ccc(O)cc1)NC(=O)CNC(=O)[C@H](CO)NC(=O)[C@H](CC(=O)O)NC(=O)CC[C@@H](C)[C@H]1CC[C@H]2[C@@H]3[C@H](O)C[C@@H]4C[C@H](O)CC[C@]4(C)[C@H]3C[C@H](O)[C@]12C)C(C)C)C(=O)N[C@H](C(=O)N[C@@H](Cc1ccccc1)C(=O)N[C@@H](Cc1ccccc1)C(=O)O)C(C)C` [PPI-341, cholyl-Aβ7-20] (Cholyl-DSGYEVHHQKLVFF-OH), the “Fold Increase in Lag Time” value is, setting by setting: (Table III, 33 mole %) 2 fold; (Table III, 100 mole %) >4.5 fold.
